We go through one compound from patent US9662322B2 (TEVA PHARMACEUTICAL INDUSTRIES, LTD., priority 2014, dated 2017).

In the data set the test system is subjects with relapsing remitting multiple sclerosis (RRMS). The experiment in a line: ALLEGRO Phase III trial: safety and tolerability. Format: in vivo, human. How it is done: The following assessments were performed at specified time points: • 1. Vital signs were measured at each study visit. • 2. A physical examination is performed at months −1 (screening), 0 (baseline) 1, 3, 6, 12, 18 and 24 (termination/early discontinuation core study). In case of the 6 months extended study, additional examination was performed at month 30 (termination/early discontinuation of extended study). • 3. The following safety clinical laboratory tests were performed: • a. Complete blood count (CBC) with differential—at all scheduled visits. A reticulocyte count was added to the CBC at months 0 (baseline) and 24/30 (termination/early discontinuation). • b. Serum chemistry (including electrolytes, liver enzymes, direct and total bilirubin and pancreatic amylase and CPK), and urinalysis—at all scheduled visits. • c. A rapid urine β-hCG test was performed in women of child-bearing potential at baseline (month 0) and at each scheduled study visit thereafter (at site). • d. β-hCG in women of child-bearing potential was performed at all scheduled visits. • e. Starting after visit Month 3 a rapid urine β-hCG test was performed in women of child-bearing potential every 28 (±2) days. The subject was contacted by telephone within 72 hours after the test was scheduled to be performed and asked specific questions regarding the test. In case of suspected pregnancy (positive urine β-hCG test result), the caller made sure that the study drug has been discontinued and the subject was instructed to arrive at the site as soon as possible with all study drugs. • 4. Markers of inflammation (serum conventional C-reactive protein and fibrinogen)—at screening, baseline and all scheduled visits thereafter. • 5. During the first 3 months periodical phone calls were placed by the site personnel every two weeks. […] ECG was performed at months −1 (screening; additional recording, up to 30 minutes apart is performed if QTc is […] 450 msec), (baseline; three recordings, 15 minutes apart), 1, 2, 3, 6, 12, 18 and 24 (termination/early discontinuation). In case of the 6 months extended study, ECG is performed at month 30 (termination/early discontinuation of the extended study). • 7. Chest X-ray is performed at months −1 (screening), (if not performed within 7 months prior to the screening visit). • 8. Adverse Events (AEs) are monitored throughout the study. • 9. Concomitant medications are monitored throughout the study. • 10. Neurological evaluations, including Expanded Disability Status Scale (EDSS), 25 foot walk test/Ambulation Index (AI), Functional systems (FS) are performed at months −1 (screening), 0 (baseline) and every 3 months during the study and the extended study period. • 11. MS functional Composite (MSFC) was assessed at months −1 (screening) (three practices for training purposes only), at month 0 (baseline), 6, 12, 18 and 24 (termination/early discontinuation). In case of the 6 months extended study, the last MSFC was performed at months 30 (termination/early discontinuation of the extended study). • 12. Subject-reported fatigue was assessed by the Modified Fatigue Impact Scale (MFIS) at months 0, 6, 12, 18, and 24 (termination/early discontinuation). In case of the 6 months extended study, additional MFIS was performed at month 30 (termination/early discontinuation of the extended study). • 13. The general health status was assessed by the EuroQoL (EQ5D) questionnaire at month 0 (baseline) and month 24 (termination/early discontinuation of the study). In case of the 6 months extended study, the last EuroQoL (EQ5D) was performed at month 30 (termination/early discontinuation of the extended study) instead of month 24. • 14. The general health status was assessed by the Short-Form general health survey (SF-36) subject-reported questionnaire at month 0 (baseline) and every 6 months thereafter, until termination/early discontinuation. • 15. […]

On to `CCN(C(=O)c1c(O)c2c(Cl)cccc2n(C)c1=O)c1ccccc1` [Laquinimod, laquinimod], for which, for the setting “0.6 mg daily, 24 months”, the Deaths result is reported as “No deaths”. Also, where the note is “human, in vivo, 24 months”, the “ALT elevations ≧5×ULN, patients” value was determined as 8; the “Abdominal pain, % of patients” value was 5.8%; the “Adverse events, number” value was found to be 3309; the Appendicitis was determined as 5 cases. Where the note is “human, in vivo, 24 months”, the “Back pain, % of patients” value is listed as 16.4%; the “Cough, % of patients” value is 7.5%; the Neoplasms turned out to be 8 cases; the “Patients reporting 1 or more adverse events” value was found to be 87%. In addition, for the setting “human, in vivo, 24 months”, the “Serious adverse events (SAEs) reported, total” value is on record as 122; the “Shift to ALT ≧3×ULN and <5×ULN, % of patients” value is recorded as 4.9%; the “Study discontinuation associated with these adverse events (abdominal pain, back pain, cough)” value came out at 3%; the “Treatment discontinuation due to ALT≧3 and <5×ULN, patients” value worked out at 7. In addition, the Liver failure result (in vivo) is “no cases of liver failure”.
